{"source": "patent US7713559B2", "about": "“Amorphous water-soluble calcium citrate salts and method of making and using same” (Kraft Foods Global Brands LLC, priority 2004, dated 2010)", "key": {"[1]": {"test": "pH and initial solution appearance of powders added to water at 1 percent", "type": "physicochemical", "conditions": "powder added to water at a level of 1 percent", "experimental": "Powders prepared according to the present invention, as described above, were added to water at a level of 1 percent to measure pH and assess initial solution appearance. The crystalline commercial 3:2 mole ratio TCC reference material was included for comparison."}, "[2]": {"test": "dissolution in water and freedom from haze and sediment at 350 mg calcium per eight fluid ounce serving", "type": "physicochemical", "source_text": "The solution remained completely free of haze and sediment for at least two days of storage at room temperature. Similar or even better results were obtained from the salts prepared having calcium:citrate mole ratios lower than 2:2, even when dissolved in water at higher concentrations.\nThese powders, in spite of the sediment produced, would provide very acceptable performance in many, if not most, food applications, including instant beverage mixes and acidified RTD beverages.\nThis behavior might also be acceptable in some situations (i.e., opaque instant beverage mixes), but appears to represent a practical upper limit for applications that require high levels of soluble calcium and/or require a sediment-free transparent appearance.\nAs an alternative to freeze drying, an amorphous 2:2 mole ratio calcium citrate salt, using the same ingredients as in Example 1, was also successfully produced via spray drying (i.e., pilot scale drying using standard operating conditions and procedures). In this case, chilled calcium hydroxide and citric acid solutions were combined and rapidly spray dried before solidification or sediment formation could occur. […] In a large scale commercial process, the citric acid and calcium hydroxide (or other suitable reagents) would be beneficially combined just prior to spray drying to limit the potential for solidification or sediment formation.\nOne batch of the chilled citric acid solution was poured into a mix tank jacketed with cooling water and one batch of calcium hydroxide suspension was added with stirring. […] The clear solution was immediately pumped into a semi-works scale spray dryer, fitted with an atomizing nozzle, at a flow rate of about 0.5 kg per minute. Additional batches of citric acid solution and calcium hydroxide suspension were similarly added to the mix tank as needed to prevent complete emptying. A sample of fine white powder was collected from the spray dryer after ten minutes of operation. […] After a further fifteen minutes, the cooling water was shut off from the jacketed mix tank. […] In less than one hour, the atomizing nozzle and pipe between the mix tank and the spray dryer became plugged with an accumulated deposit of insoluble crystalline calcium citrate."}, "[3]": {"test": "shelf life testing of calcium-fortified RTD beverage", "type": "physicochemical", "conditions": "CRYSTAL LIGHT RTD lemon beverage", "experimental": "Fortified RTD beverages were formulated with several forms of calcium citrate. The visual appearance, flavor, and stability of the products were evaluated over a seven-month period by an experienced panel. Identical samples of each fortified beverage were prepared for shelf life testing under both ambient (22° C.) and refrigerated (4° C.) storage conditions.\nThe freeze dried amorphous 2:2 mole ratio calcium citrate salt (17% calcium) of Example 1 was successfully used to fortify a ready-to-drink sugar-free lemon-flavored beverage (CRYSTAL LIGHT®) with 350 mg calcium per eight fluid ounce serving (“excellent source of calcium” level). To formulate the calcium-fortified powdered mix, eight fluid ounces of commercial CRYSTAL LIGHT® RTD beverage mix was mixed thoroughly with 2 g of the freeze dried amorphous 2:2 mole ratio calcium citrate salt."}, "[4]": {"test": "calcium-fortified powdered instant drink mixes reconstituted with cold water", "protocol": "One sample of the amorphous salt (2.0 g) was combined with 17.0 g sweetened Cherry Kool-Aid® powdered instant drink mix in a 400 ml beaker. The powdered drink mix contained sugar, fructose, citric acid, calcium phosphate (not a significant source of calcium), artificial flavor, artificial colors, and ascorbic acid. Another sample of the amorphous salt (2.0 g) was combined with 2.0 g artificially-sweetened Lemon CRYSTAL LIGHT® powdered instant drink mix and placed in a 400 ml beaker. The powdered drink mix contained citric acid, potassium citrate, maltodextrin, aspartame, magnesium oxide, natural flavor, lemon juice solids, acesulfame potassium, artificial colors, and BHA."}, "[5]": {"conditions": "room temperature; cited from earlier work"}, "[6]": {"conditions": "freeze dried powders of Example 1 or commercial salts, room temperature water, 350 mg calcium per eight fluid ounce serving"}}}
{"molecule": "O=C([O-])CC(O)(CC(=O)O)C(=O)[O-].[Ca+2]", "note": "[2:2, dicalcium citrate]", "values": [{"measurement": "Initial Solution Appearance", "setting": "[1]", "result": "No haze; no sediment"}, {"measurement": "Solution pH", "setting": "[1]", "result": 4.1}, {"measurement": "time solution remained completely free of haze and sediment", "setting": "[2]; freeze dried powder, 2 g in 240 ml water, storage at room temperature", "result": "at least two"}, {"measurement": "dissolution behaviour on addition to water", "setting": "[2]; [6]", "result": "instantly dissolving clear solution"}, {"measurement": "dissolution in cold water", "setting": "[2]; larger spray dryer, sample collected after ten minutes of operation, feed cooled, 350 mg calcium per eight fluid ounces", "result": "rapidly dissolved in cold water without haze or precipitate"}, {"measurement": "dissolution in water", "setting": "[2]; larger spray dryer, sample collected after thirty minutes, cooling water shut off", "result": "did not dissolve completely in water"}, {"measurement": "dissolution behaviour on addition to water", "setting": "[2]; spray dried salt of Example 2 (pilot scale), 2 g in 240 ml room temperature water, 350 mg calcium per eight ounce serving", "result": "instantly dissolving clear solution"}, {"measurement": "time solution remained completely free of sediment", "setting": "[2]; spray dried salt of Example 2 (pilot scale), room temperature", "result": "at least three"}, {"measurement": "sediment in fortified RTD beverage during shelf life evaluation", "setting": "[3]; 350 mg calcium per eight fluid ounces, seven-month period, room temperature (22° C.) and refrigeration (4° C.)", "result": "remained sediment free"}, {"measurement": "dissolution when water was added to fortified drink mix", "setting": "[4]; 2.0 g salt with Cherry Kool-Aid or Lemon CRYSTAL LIGHT mix, eight fluid ounces cold water, no stirring", "result": "dissolved immediately"}, {"measurement": "time reconstituted beverage remained free of sediment", "setting": "[4]; Cherry Kool-Aid and Lemon CRYSTAL LIGHT mixes, 350 mg calcium per serving", "result": "at least 24 hours"}]}
{"molecule": "O=C([O-])CC(O)(CC(=O)O)C(=O)O.O=C([O-])CC(O)(CC(=O)O)C(=O)O.[Ca+2]", "note": "[1:2, monocalcium citrate]", "values": [{"measurement": "Initial Solution Appearance", "setting": "[1]", "result": "No haze; no sediment"}, {"measurement": "Solution pH", "setting": "[1]", "result": 3.4}]}
{"molecule": "TCC tetrahydrate [3:2*, reference compound]", "values": [{"measurement": "haze and sediment produced at first, on or soon after addition to water", "setting": "[2]; 350 mg calcium per eight fluid ounce serving", "result": "immediately produced a large amount of a coarse, gritty white sediment"}, {"measurement": "dissolution behaviour on addition to water", "setting": "[2]; [6]", "result": "did not completely disperse in water"}, {"measurement": "sediment in fortified RTD beverage upon admixture of the ingredients", "setting": "[3]; amounts to provide the same level of calcium", "result": "noticeable sediment formation"}, {"measurement": "solubility in water", "setting": "[5]", "result": "less than 0.1%"}, {"measurement": "soluble calcium provided per fluid ounce of water", "setting": "[5]", "result": "about 6 mg"}, {"measurement": "sediment formation in reconstituted beverage", "setting": "[4]; 1.7 g in place of the amorphous salt, Cherry Kool-Aid and Lemon CRYSTAL LIGHT mixes", "result": "large amounts of coarse gritty sediment were formed immediately"}, {"measurement": "dissolution of the sediment", "setting": "[4]; with rapid stirring or with the passage of time", "result": "did not dissolve"}]}
{"molecule": "sesqui-calcium citrate [1.5:2]", "values": [{"measurement": "Initial Solution Appearance", "setting": "[1]", "result": "No haze; no sediment"}, {"measurement": "Solution pH", "setting": "[1]", "result": 3.8}]}
